# Source: patent US20220341943A1, “XBP1 ISOFORM MULTIPLEX ASSAY” (Randox Laboratories Ltd, priority 2019, published 2022)
# Assays:
# Type in all cases: cell-based
# XBP1s, MDA-MB-231 cells = experiment: Immunoblot of XBP1 isoforms in MDA-MB-231 cells; details: for XBP1s translation (immunoblot): Tg 48 h, Tm 1 μg/ml 16 h, BFA 0.5 μg/ml 16 h, DTT 4 mM 2 h; for XBP1s (immunoblot) under IRE1α RNase inhibition: 4μ8C 32 μM or MKC-8866 20 μM, 48 h
# Description: (§1) Cell culture and treatments MCF10A (ATCC) cells were maintained in DMEM/F-12 (Sigma-Aldrich, St. Louis, USA) supplemented with 5% horse serum (Sigma-Aldrich, St. Louis, USA), 20 ng/mL epidermal growth factor (PeproTech, London, UK), 0.5 μg/mL Hydrocortisone (Sigma-Aldrich, St. Louis, USA), 100 ng/mL Cholera toxin (Sigma-Aldrich, St. Louis, USA), 10 μg/mL insulin (Sigma-Aldrich, St. Louis, USA), 50 U/mL^1 penicillin, and 50 μg/mL streptomycin (St. Sigma-Aldrich, St. Louis, USA). MCF7 cells (ECACC) were cultured in DMEM high glucose (Sigma-Aldrich, St. Louis, USA) supplemented with 10% FBS, 0.01 mg/mL Insulin (Sigma-Aldrich, St. Louis, USA), and 2 mM L-glutamine. MDA-MB-231 cells were cultured in DMEM high glucose (Sigma-Aldrich, St. Louis, USA) supplemented with 10% FBS, 50 U/mL^1 penicillin, 50 μg/mL streptomycin, and 2 mM L-glutamine. U937 and THP-1 (ATCC, Manassas, USA) cells were cultured in RPMI-1640 medium (Sigma-Aldrich, St. Louis, USA) supplemented with 10% foetal bovine serum (FBS) (Sigma-Aldrich, St. Louis, USA), 50 U/mL penicillin, 50 μgml^−1 streptomycin (Sigma-Aldrich, St. Louis, USA), and 2 mM L-glutamine (Sigma-Aldrich, St. Louis, USA). All cells were cultured at 37° C., 5% CO2 in a humidified incubator and adherent cells seeded at an appropriate density 24 h prior to treatment. U937 cells were seeded at 5×10^5 cells/mL and treated immediately while THP-1 cells were seeded at 1×10^6 cells/mL and treated after 2 hours.
# (§2) Sample preparation Cells were washed once in ice cold phosphate buffered saline (PBS) and then lysed in either RIPA buffer (Sigma-Aldrich, St. Louis, USAUSA) with RocheSTOP protease inhibitors (Roche, Basel, Switzerland) for protein analysis or directly lysed in TriReagent (Sigma-Aldrich, St. Louis, USAUSA) as per manufactures instructions for RNA analysis.
# Immunoblotting Protein lysates were mixed with 5× Laemmli Buffer (0.3125 M Tris HCl (pH 6.8), 10% SDS, 50% glycerol, 25% 2-mercaptoethanol, 0.02% bromophenol blue) in a 1:4 ratio and boiled at 95° C. for 5 min. Samples were separated on an SDS polyacrylamide gel, transferred onto nitrocellulose membrane (GE Healthcare Life Sciences, Little Chalfont, UK) and blocked with 5% milk in Wash Buffer (Randox Laboratories Ltd., Crumlin, UK). Membranes were probed with commercial antibodies to spliced and unspliced XBP1 isoforms and Actin (Sigma-Aldrich, St. Louis, USA, 1:5000). Anti-rabbit (Jackson ImmunoResearch, Cambridge, UK) and anti-mouse (Jackson ImmunoResearch, Cambridge, UK; Sigma-Aldrich, St. Louis, USA) HRP-conjugated secondary antibodies were incubated for 45-60 min and the signal was visualized using western blotting luminol reagent (Thermofisher, Waltham, USA; Perkin-Elmer, Waltham, USA).
# [1] = tested on: XBP1 splicing, MDA-MB-231 cells; experiment: XBP1 biochip quantification of XBP1s and XBP1u in MDA-MB-231 lysates; details: for XBP1s quantified by XBP1 biochip: 4μ8C 32 μM (p=0.035) or MKC-8866 20 μM (p=0.033); for Paclitaxel induced increase in XBP1s under IRE1α RNase inhibition: Paclitaxel 10 nM 48 h plus inhibitor, p<0.01; for XBP1u levels: Paclitaxel, MKC-8866 and/or 4μ8C treatment; for XBP1u protein levels during IRE1α inhibition: XBP1 biochip, p=0.71
# Description: (§3) Biochip-based determination of XBP1s and XBP1u. XBP1s and XBP1u levels and raw signal were quantified using the Evidence Investigator analyser (EV3602, Randox Laboratories Ltd., UK). Signals from defined discrete test regions were detected using digital imaging technology. The biochips were provided in wells in a carrier in a 3×3 format (9 reaction wells per carrier). A carrier handling tray supplied with the system accommodated 6 carriers. The total assay protocol was performed according to manufacturer's instructions. Briefly, RIPA lysed samples were diluted to 100 μL in RIPA buffer followed by dilution to 200 μL in XBP1 assay buffer and mixed well with gentle pipetting. 200 μL of XBP1 assay diluent was then applied to the surface of the biochip followed by 200 μL diluted sample or 100 μL calibrator/control per well. Following a 60-minute incubation at 37° C., 370 RPM in a thermoshaker (Randox Laboratories Ltd., Crumlin, UK) liquid contents were removed with a sharp flick and washed in a 2× quick, 4×2 min wash steps. 300 μL of HRP conjugated pan-XBP1 detector was applied to each well and another 60 min incubation at 37° C., 370 RPM in a thermoshaker was performed. Following another wash as above 250 μL of a 1:1 ratio of EV841 luminol and peroxide was applied to the surface of each biochip in a carrier and incubated away from direct light for 2 min. Carriers were then submitted to the Evidence Investigator, light emitted from each DTR detected by the CCD camera and signal quantified by the instrument software. Final values in pg/mg were obtained by dividing reported value (in pg) by total protein loaded per well, as determined by bicinchoninic acid (BCA) assay. Calibration curves, inferred values and goodness of fit were independently confirmed using R package nplr (0.1-7, Frederic Commo, https://cran.r-project.org/web/packages/nplr/index.html).
# as §1, §2
# [2] = tested on: XBP1 splicing, MCF7 cells; experiment: XBP1 biochip quantification of XBP1s and XBP1u in MCF7 lysates; details: 48 h; for XBP1s quantified by XBP1 biochip: 4μ8C 32 μM (p=0.004) or MKC-8866 20 μM (p=0.008)
# Description: as §3, with “https://cran.r-project.org/web/packages/nplr/index.html). […]” for “https://cran.r-project.org/web/packages/nplr/index.html).”
# XBP1s, MCF7 cells = experiment: Immunoblot of XBP1 isoforms in MCF7 cells; details: 4μ8C 32 μM or MKC-8866 20 μM, 48 h
# Description: as §1, with “U937 cells were seeded at 5×10^5 cells/mL and treated immediately while THP-1 cells were seeded at 1×10^6 cells/mL and treated after 2 hours.” left out
# [3] = tested on: XBP1 splicing, THP-1 cells; experiment: XBP1 biochip and RT-PCR assessment of THP-1 cells after NLRP3 inflammasome activation; details: for XBP1 splicing upon inflammasome activation: LPS 1 μg/ml 4 h followed by nigericin 10 μM 45 min (used together)
# Description: as §3
# Cell culture and treatments MCF10A (ATCC) cells were maintained in DMEM/F-12 (Sigma-Aldrich, St. Louis, USA) supplemented with 5% horse serum (Sigma-Aldrich, St. Louis, USA), 20 ng/mL epidermal growth factor (PeproTech, London, UK), 0.5 μg/mL Hydrocortisone (Sigma-Aldrich, St. Louis, USA), 100 ng/mL Cholera toxin (Sigma-Aldrich, St. Louis, USA), 10 μg/mL insulin (Sigma-Aldrich, St. Louis, USA), 50 U/mL^1 penicillin, and 50 μg/mL streptomycin (St. Sigma-Aldrich, St. Louis, USA). MCF7 cells (ECACC) were cultured in DMEM high glucose (Sigma-Aldrich, St. Louis, USA) supplemented with 10% FBS, 0.01 mg/mL Insulin (Sigma-Aldrich, St. Louis, USA), and 2 mM L-glutamine. MDA-MB-231 cells were cultured in DMEM high glucose (Sigma-Aldrich, St. Louis, USA) supplemented with 10% FBS, 50 U/mL^1 penicillin, 50 μg/mL streptomycin, and 2 mM L-glutamine. […]
# [4] = tested on: NLRP3 mediated IL-1β release, THP-1 cells; experiment: Immunoblot of IL-1β in conditioned media of THP-1 cells; details: LPS and nigericin activated
compound,measurement,setting,value
O[C@H](CS)[C@H](O)CS (racemic) [Dithiothreitol],XBP1s translation (immunoblot),"XBP1s, MDA-MB-231 cells",upregulation
Cc1cc(=O)oc2c(C=O)c(O)ccc12 [4μ8C],relative potency of inhibition of XBP1s (XBP1 biochip),"[1]; MCF7 and MDA-MB-231, 4μ8C 32 μM versus MKC-8866 20 μM",more potent than MKC
same,XBP1s quantified by XBP1 biochip,"[1]; MDA-MB-231, 48 h",significant reductions
same,Paclitaxel induced increase in XBP1s under IRE1α RNase inhibition,[1]; MDA-MB-231,completely ablated
same,XBP1u levels,"[1]; MDA-MB-231, 48 h",no significant change
same,XBP1u protein levels during IRE1α inhibition,[1]; MDA-MB-231,largely unchanged
same,XBP1s quantified by XBP1 biochip,[2],significant reductions
same,XBP1u protein expression level (average),"[2]; 4μ8C 32 μM, significant upregulation, p=0.019",81.1 µg/mg
same,XBP1s (immunoblot) under IRE1α RNase inhibition,"XBP1s, MDA-MB-231 cells",reduction
same,XBP1s (immunoblot) under IRE1α RNase inhibition,"XBP1s, MCF7 cells",reduction
C[C@H]1CCC/C=C/[C@@H]2C[C@H](O)C[C@H]2[C@H](O)/C=C/C(=O)O1 [Brefeldin A],XBP1s translation (immunoblot),"XBP1s, MDA-MB-231 cells",upregulation
COc1cc2c(C)c(CC(=O)N3CCOCC3)c(=O)oc2c(C=O)c1O [MKC-8866],XBP1s quantified by XBP1 biochip,"[1]; MDA-MB-231, 48 h",significant reductions
same,Paclitaxel induced increase in XBP1s under IRE1α RNase inhibition,[1]; MDA-MB-231,completely ablated
same,XBP1u levels,"[1]; MDA-MB-231, 48 h",no significant change
same,XBP1u protein levels during IRE1α inhibition,[1]; MDA-MB-231,largely unchanged
same,XBP1s quantified by XBP1 biochip,[2],significant reductions
same,XBP1s (immunoblot) under IRE1α RNase inhibition,"XBP1s, MDA-MB-231 cells",reduction
same,XBP1s (immunoblot) under IRE1α RNase inhibition,"XBP1s, MCF7 cells",reduction
same,XBP1s expression upon MKC-8866 mediated inhibition (XBP1 biochip),"[3]; LPS and nigericin activated, p=0.048",significant changes
same,XBP1u levels (XBP1 biochip),"[3]; mean=46.2 μg/mg over treatments, one-way ANOVA p=0.408",largely unchanged
same,IL-1β release,[4],ablates
CC(=O)O[C@H]1C(=O)[C@@]2(C)[C@H]([C@H](OC(=O)c3ccccc3)[C@]3(O)C[C@H](OC(=O)[C@H](O)[C@@H](NC(=O)c4ccccc4)c4ccccc4)C(C)=C1C3(C)C)[C@]1(OC(C)=O)CO[C@@H]1C[C@@H]2O [Paclitaxel],XBP1s expression,"[1]; MDA-MB-231, Paclitaxel 10 nM, 48 h, from 66.9±16.2 without Paclitaxel, p=0.036",125.0 ± 14.1 µg/mg
same,XBP1u levels,"[1]; MDA-MB-231, 48 h",no significant change
C/C=C(/C)C(=O)O[C@H]1C(C)=C2[C@H]([C@@H]1OC(=O)CCCCCCC)[C@@](C)(OC(C)=O)C[C@H](OC(=O)CCC)[C@@]1(O)[C@H]2OC(=O)[C@@]1(C)O [Thapsigargin],XBP1s translation (immunoblot),"XBP1s, MDA-MB-231 cells",upregulation
"CO[C@@H]1C[C@@H](C[C@H]2CC[C@H](C)[C@H]([C@@H](C)C(=O)O)O2)O[C@]2(O[C@](C)([C@H]3CC[C@@](C)([C@@H]4O[C@@H]([C@H]5O[C@@](O)(CO)[C@H](C)C[C@@H]5C)C[C@@H]4C)O3)C[C@H]2C)[C@@H]1C [nigericin, Nigericin]",XBP1 splicing upon inflammasome activation,[3],increase
Lipopolysaccharide [LPS],XBP1 splicing upon inflammasome activation,[3],increase
Tunicamycin,XBP1s translation (immunoblot),"XBP1s, MDA-MB-231 cells",upregulation
